Values of other authors in patent US20100255088A1 (priority 2009, published 2010).
Where two headings read alike, the source gives them in different places.

Experiments:
[1] = not given; remark: listed apart in the source
H+/K+ ATPase = H+/K+ ATPase (Homo sapiens, UniProt P20648); conditions: Life Sciences 66(8), 2000, 663-673
[2] = tested on: isolated pig retinal artery; conditions: through the NO system and prostacycline secretion
platelet aggregation = conditions: aspirin resistance group of patients
[3] = tested on: yeast and primitives animals; conditions: high resveratrol levels artificially maintained

Sequence of H+/K+ ATPase (P20648 whole entry): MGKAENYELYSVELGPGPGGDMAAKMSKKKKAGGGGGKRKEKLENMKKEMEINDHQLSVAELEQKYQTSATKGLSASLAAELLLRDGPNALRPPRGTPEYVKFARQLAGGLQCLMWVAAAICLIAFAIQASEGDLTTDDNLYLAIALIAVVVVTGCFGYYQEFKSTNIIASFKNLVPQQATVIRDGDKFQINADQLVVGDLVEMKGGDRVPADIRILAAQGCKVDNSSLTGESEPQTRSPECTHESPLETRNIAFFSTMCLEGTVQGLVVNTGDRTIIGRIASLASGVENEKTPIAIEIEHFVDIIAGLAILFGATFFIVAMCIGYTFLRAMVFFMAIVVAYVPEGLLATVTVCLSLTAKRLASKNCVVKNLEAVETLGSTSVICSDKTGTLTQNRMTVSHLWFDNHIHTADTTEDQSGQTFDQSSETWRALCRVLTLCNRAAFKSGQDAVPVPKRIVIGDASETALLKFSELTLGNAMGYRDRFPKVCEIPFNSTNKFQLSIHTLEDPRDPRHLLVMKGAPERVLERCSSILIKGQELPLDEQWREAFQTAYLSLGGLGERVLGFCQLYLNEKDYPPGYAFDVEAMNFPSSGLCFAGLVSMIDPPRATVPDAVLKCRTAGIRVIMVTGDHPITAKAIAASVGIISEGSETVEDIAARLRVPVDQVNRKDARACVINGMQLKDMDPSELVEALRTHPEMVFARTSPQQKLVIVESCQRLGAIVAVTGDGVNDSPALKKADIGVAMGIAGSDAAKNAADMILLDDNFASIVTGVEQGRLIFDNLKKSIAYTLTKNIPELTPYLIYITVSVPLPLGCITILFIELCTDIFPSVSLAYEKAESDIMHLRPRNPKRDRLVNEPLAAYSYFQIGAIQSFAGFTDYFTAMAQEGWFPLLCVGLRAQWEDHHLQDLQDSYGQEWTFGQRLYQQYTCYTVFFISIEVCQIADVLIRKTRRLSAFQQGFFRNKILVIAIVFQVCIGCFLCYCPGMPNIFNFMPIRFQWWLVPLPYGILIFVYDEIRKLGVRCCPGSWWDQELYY
Sequence of H+/K+ ATPase (P51164 whole entry partner): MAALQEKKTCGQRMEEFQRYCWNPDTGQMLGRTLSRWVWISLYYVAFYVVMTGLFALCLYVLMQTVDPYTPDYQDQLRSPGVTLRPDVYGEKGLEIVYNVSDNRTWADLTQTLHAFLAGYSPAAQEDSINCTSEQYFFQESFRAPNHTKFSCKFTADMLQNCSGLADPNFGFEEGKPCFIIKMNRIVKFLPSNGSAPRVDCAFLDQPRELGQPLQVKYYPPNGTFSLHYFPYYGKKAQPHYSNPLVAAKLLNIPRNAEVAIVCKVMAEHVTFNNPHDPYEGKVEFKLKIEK

| SMILES | water solubility | patients with reduced mortality ([1]; at least 325 mg daily for ten years) [%] | incidence of various human carcinomas ([1]; full dose aspirin for ten years and above) | patients with reduced mortality ([1]; higher doses for ten years) [%] | hydrochloric acid production (H+/K+ ATPase) | vasodilating effect [2] | platelet aggregation inhibition (platelet aggregation) | life span [3] |
| --- | --- | --- | --- | --- | --- | --- | --- | --- |
| CC(=O)Oc1ccccc1C(=O)O [aspirin, acetyl salicylic acid] | not water-soluble | 50 | halved | 75 |  |  |  |  |
| Oc1ccc(C=Cc2cc(O)cc(O)c2)cc1 [resveratrol] |  |  |  |  | reducing significantly the hydrochloric acid production | strong vasodilating effect | optimal platelet aggregation inhibition | doubling the life span |
